Patent US20130164259A1, “1,4-S[…] DERIVATIVES AND METHODS OF USE THEREOF” (priority 2009, published 2013)

molecular target: T1, HCV NS5B polymerase (NS5BΔCT21) (Hepatitis C virus genotype 1b, UniProt Q9WMX2); assay: HCV NS5B Polymerase Inhibition Assay; type: biochemical, HCV-Con 1 isolate
T1 construct: A soluble C-terminal 21-amino acid truncated NS5B enzyme form; polyhistidine (C); made in house; host or cells: Escherichia coli
Source text: A chemically synthesized 75-mer version, designated DCoH75, whose sequence matches the 3′-end of D-RNA, and DCoH75ddC, where the 3′-terminal cytidine of DCoH75 is replaced by dideoxycytidine, were used for assaying the NS5B enzyme activity as described in Ferrari et al., 12th International Symposium on HCV and Related Viruses, P-306 (2005). The sequence of the template RNA was: 5′-UGUGCCGGUCUUUCUGAACGGGAUAUAAACCUGGCCAGCUUCAUCGAACAAGUUGCCGUGUCUAUGACAUAGAUC-3′ (SEQ ID NO: 1). A soluble C-terminal 21-amino acid truncated NS5B enzyme form (NS5BΔCT21, from HCV-Con 1 isolate, genotype 1b, Genbank accession number AJ238799) was produced and purified from Escherichia coli as C-terminal polyhistidine-tagged fusion protein as described in Ferrari et al., J. Virol. 73:1649-1654 (1999). A typical assay contained 20 mM Hepes pH 7.3, 10 mM MgCl2, 60 mM NaCl, 100 μg/ml BSA, 20 units/ml RNasin, 7.5 mM DTT, 0.1 μM ATP/GTP/UTP, 0.026 μM CTP, 0.25 mM GAU, 0.03 μM RNA template, 20 μCi/ml [^33P]-CTP, 2% DMSO, and 30 or 150 nM NS5B enzyme. Reactions were incubated at 22° C. for 2 hours, then stopped by adding 150 mM EDTA, washed in DE81 filter plate in 0.5M di-basic sodium phosphate buffer, pH 7.0, and counted using Packard TopCount after the addition of scintillation cocktail. Polynucleotide synthesis was monitored by the incorporation of radiolabeled CTP. The effect of the Compounds of Formula (I) on the polymerase activity was evaluated by adding various concentrations of a Compound of Formula (I), typically in 10 serial 2-fold dilutions, to the assay mixture. The starting concentrations ranged from 200 μM to 1 μM. An IC50 value for the inhibitor, defined as the compound concentration that provides 50% inhibition of polymerase activity, was determined by fitting the cpm data to the Hill equation Y=100/(1+10̂((LogIC50−X)*HillSlope)), where X is the logarithm of compound concentration, and Y is the % inhibition. Ferrari et al., 12th International Symposium on HCV and Related Viruses, P-306 (2005) described in detail this assay procedure. It should be noted that such an assay as described is exemplary and not intended to limit the scope of the invention. The skilled practitioner can appreciate that modifications including but not limited to RNA template, primer, nucleotides, NS5B polymerase form, buffer composition, can be made to develop similar assays that yield the same result for the efficacy of the compounds and compositions described in the invention.
NS5B polymerase inhibition data was calculated for the compounds of the present invention using this method and is set forth in the table below.

Compound	IC50 [µM]
COc1ncccc1C(=O)Nc1ccc(C(C)C)cc1N1CCN(c2cnccn2)CC1 [Compound 11]	> 20
Cc1cnc(N2CCN(c3cc(C(C)C)ccc3NC(=O)c3cccnc3)CC2)s1 [Compound 49]	3.9
CC(C)c1ccc(NC(=O)c2cncnc2)c(N2CCN(c3cnccn3)CC2)c1 [Compound 34]	> 20
Cc1ccc(C(=O)Nc2ccc(C(C)C)cc2N2CCN(c3cnccn3)CC2)cn1 [Compound 17]	14
CC(C)c1ccc(NC(=O)c2cccnc2N)c(N2CCN(c3cnccn3)CC2)c1 [Compound 8]	1
CC(C)c1ccc(NC(=O)c2cccc(F)c2)c(N2CCN(c3cnccn3)CC2)c1 [Compound 12]	1
CC(C)c1ccc(NC(=O)C2CCOCC2)c(N2CCN(c3cnccn3)CC2)c1 [Compound 31]	> 20
CC(C)c1ccc(NC(=O)c2cccnc2)c(N2CCN(c3cnccn3)CC2)c1 [Compound 1]	3
CC(C)c1ccc(NC(=O)c2cccnc2)c(N2CCN(C(=O)CN(C)C)CC2)c1 [Compound 55]	> 200
O=C(Nc1ccc(Br)cc1N1CCN(c2cnccn2)CC1)c1cccnc1 [Compound 65]	> 20
CC(C)c1ccc(NC(=O)c2cccnc2O)c(N2CCN(c3cnccn3)CC2)c1 [Compound 10]	3
Cc1c(F)cc(F)cc1C(=O)Nc1ccc(C(C)C)cc1N1CCN(c2cnccn2)CC1 [Compound 14]	0.54
Cc1nc(N(C)C)sc1C(=O)Nc1ccc(C(C)C)cc1N1CCN(c2cnccn2)CC1 [Compound 22]	10
Cc1ncccc1C(=O)Nc1ccc(C(C)C)cc1N1CCN(c2cncc(C3CC3)n2)CC1 [Compound 61]	1
Cc1cncc(N2CCN(c3cc(C(C)C)ccc3NC(=O)c3cccnc3)CC2)n1 [Compound 40]	0.5
O=C(Nc1ccc(C2CC2)cc1N1CCN(c2cnccn2)CC1)c1cccnc1 [Compound 66]	12
Cc1ccnc(N2CCN(c3cc(C(C)C)ccc3NC(=O)c3cccnc3)CC2)n1 [Compound 44]	1.5

Compound	IC50 [µM]
CC(C)c1ccc(NC(=O)c2cccnc2)c(N2CCN(c3nccs3)CC2)c1 [Compound 47]	2.5
Cc1ncccc1C(=O)Nc1ccc(C(C)C)cc1N1CCN(c2ncnc3ccsc23)CC1 [Compound 59]	0.014
Cc1ncccc1C(=O)Nc1ccc(C(C)C)cc1N1CCN(c2ccncn2)CC1 [Compound 57]	0.1
CC(C)c1ccc(NC(=O)c2ccccn2)c(N2CCN(c3cnccn3)CC2)c1 [Compound 33]	> 20
Cc1ncccc1C(=O)Nc1ccc(C(C)C)cc1N1CCN(c2cnccn2)CC1 [Compound 2]	0.52
CC(C)c1ccc(NC(=O)c2cccnc2)c(N2CCN(c3ccccn3)CC2)c1 [Compound 51]	7.3
CC(C)c1ccc(NC(=O)c2cnccc2C(F)(F)F)c(N2CCN(c3cnccn3)CC2)c1 [Compound 26]	> 20
Cc1cnc(C)c(N2CCN(c3cc(C(C)C)ccc3NC(=O)c3cccnc3)CC2)n1 [Compound 46]	140
O=C(Nc1ccc(I)cc1N1CCN(c2cnccn2)CC1)c1cccnc1 [Compound 70]	13
CC(C)c1ccc(NC(=O)c2cccnc2)c(N2CCN(c3ncccn3)CC2)c1 [Compound 43]	2.3
CC(C)c1ccc(NC(=O)c2ccnnc2)c(N2CCN(c3cnccn3)CC2)c1 [Compound 35]	> 20
Cc1nocc1C(=O)Nc1ccc(C(C)C)cc1N1CCN(c2cnccn2)CC1 [Compound 38]	13
Cc1occc1C(=O)Nc1ccc(C(C)C)cc1N1CCN(c2cnccn2)CC1 [Compound 29]	15
CC(C)c1ccc(NC(=O)c2cccnc2)c(N2CCN(S(C)(=O)=O)CC2)c1 [Compound 54]	> 200
Cc1csc(N2CCN(c3cc(C(C)C)ccc3NC(=O)c3cccnc3)CC2)n1 [Compound 48]	15
Cc1n[nH]cc1C(=O)Nc1ccc(C(C)C)cc1N1CCN(c2cnccn2)CC1 [Compound 39]	> 200
Cc1cncc(C(=O)Nc2ccc(C(C)C)cc2N2CCN(c3cnccn3)CC2)c1 [Compound 18]	2.3
